Values after ≈ are worked out from the molar mass of the structure shown. Active and inactive are the calls of the source. No cut-off for these calls is given here.
Legend:
Sindbis virus = experiment: Antiviral activity against Sindbis virus HRsp infected in African green monkey Vero cells assessed as reduction in virus induced cell death; format: functional, organism-based
Zika virus = experiment: Antiviral activity against Zika virus infected in African green monkey Vero cells assessed as reduction in virus induced cell death; format: functional, organism-based
Chikungunya virus [1] = experiment: Antiviral activity against Chikungunya virus infected in African green monkey Vero cells assessed as reduction in viral induced cell death incubated for 5 days by MTS reagent based absorbance method; format: functional, organism-based; settings: 120 h
Semliki Forest virus = experiment: Antiviral activity against Semliki forest virus infected in African green monkey Vero cells assessed as reduction in virus induced cell death; format: functional, organism-based
[2] = Aqueous solubility of compound at pH 7.4 by HPLC analysis; format: physicochemical
Enterovirus = experiment: Antiviral activity against Human enterovirus 71 infected in African green monkey Vero cells assessed as reduction in virus induced cell death; format: functional, organism-based
hERG (KCNH2) = hERG (KCNH2) (Homo sapiens, UniProt Q12809); experiment: Inhibition of hERG in Xenopus laevis Oocytes upto 30 uM incubated for 10 mins by patch-clamp method relative to control; format: cell-based, Oocyte; settings: Xenopus laevis oocytes expressing hERG
Caco-2 [3] = experiment: Induction of apoptosis in human Caco-2 cells assessed as increase in PARP expression at 6.25 to 100 uM incubated for 72 hrs by Western blot analysis; format: toxicity, cell-based; settings: caco-2, 72 h, dose 6.25-100 µM
Chikungunya virus [4] = experiment: Antiviral activity against Chikungunya virus 899 infected in African green monkey Vero cells assessed as reduction in viral RNA replication preincubated for 2 hrs with subsequent viral infected followed by media replacement with compound and measured after 48 hrs by qRT-PCR analysis; format: functional, organism-based; settings: dose 0.25-60 µM, time 50.0 hrs
Chikungunya virus [5] = experiment: Fold resistance , ratio of EC50 for antiviral activity against CHVB-resistant Chikungunya virus infected in African green monkey Vero cells to EC50 for antiviral activity against wildtype Chikungunya virus 899 infected in African green monkey Vero cells; format: functional
[6] = Metabolic stability in human liver microsomes assessed as parent compound remaining preincubated for 5 mins followed by NADPH addition and measured upto 60 mins by HPLC-MS/MS analysis; format: ADME, Microsome; settings: time < 65 min, read-out: Stability
[7] = Cytotoxicity against African green monkey Vero cells assessed as reduction in overall metabolic activity incubated for 5 days by MTS reagent based absorbance method; format: toxicity, cell-based; settings: chlorocebus sabaeus, time 5 day
Caco-2 [8] = experiment: Cytotoxicity against human Caco-2 cells incubated for 24 to 72 hrs by MTT assay; format: toxicity, cell-based; settings: time 24-72 hrs
[9] = Metabolic stability in human liver microsomes assessed as half-life preincubated for 5 mins followed by NADPH addition and measured upto 60 mins by HPLC-MS/MS analysis; format: ADME, Microsome; settings: time < 65 min
[10] = Selectivity index, ratio of CC50 for cytotoxicity against African green monkey Vero cells to EC50 for antiviral activity against Chikungunya virus infected in African green monkey Vero cells assessed as reduction in viral induced cell death; format: toxicity, cell-based; settings: read-out: Ratio CC50/EC50
Caco-2 [11] = experiment: Induction of apoptosis in human Caco-2 cells assessed as increase in caspase-3 expression at 6.25 to 100 uM incubated for 72 hrs by Western blot analysis; format: toxicity, cell-based; settings: caco-2, 72 h, dose 6.25-100 µM

Sequence of hERG (KCNH2) (Q12809 whole entry): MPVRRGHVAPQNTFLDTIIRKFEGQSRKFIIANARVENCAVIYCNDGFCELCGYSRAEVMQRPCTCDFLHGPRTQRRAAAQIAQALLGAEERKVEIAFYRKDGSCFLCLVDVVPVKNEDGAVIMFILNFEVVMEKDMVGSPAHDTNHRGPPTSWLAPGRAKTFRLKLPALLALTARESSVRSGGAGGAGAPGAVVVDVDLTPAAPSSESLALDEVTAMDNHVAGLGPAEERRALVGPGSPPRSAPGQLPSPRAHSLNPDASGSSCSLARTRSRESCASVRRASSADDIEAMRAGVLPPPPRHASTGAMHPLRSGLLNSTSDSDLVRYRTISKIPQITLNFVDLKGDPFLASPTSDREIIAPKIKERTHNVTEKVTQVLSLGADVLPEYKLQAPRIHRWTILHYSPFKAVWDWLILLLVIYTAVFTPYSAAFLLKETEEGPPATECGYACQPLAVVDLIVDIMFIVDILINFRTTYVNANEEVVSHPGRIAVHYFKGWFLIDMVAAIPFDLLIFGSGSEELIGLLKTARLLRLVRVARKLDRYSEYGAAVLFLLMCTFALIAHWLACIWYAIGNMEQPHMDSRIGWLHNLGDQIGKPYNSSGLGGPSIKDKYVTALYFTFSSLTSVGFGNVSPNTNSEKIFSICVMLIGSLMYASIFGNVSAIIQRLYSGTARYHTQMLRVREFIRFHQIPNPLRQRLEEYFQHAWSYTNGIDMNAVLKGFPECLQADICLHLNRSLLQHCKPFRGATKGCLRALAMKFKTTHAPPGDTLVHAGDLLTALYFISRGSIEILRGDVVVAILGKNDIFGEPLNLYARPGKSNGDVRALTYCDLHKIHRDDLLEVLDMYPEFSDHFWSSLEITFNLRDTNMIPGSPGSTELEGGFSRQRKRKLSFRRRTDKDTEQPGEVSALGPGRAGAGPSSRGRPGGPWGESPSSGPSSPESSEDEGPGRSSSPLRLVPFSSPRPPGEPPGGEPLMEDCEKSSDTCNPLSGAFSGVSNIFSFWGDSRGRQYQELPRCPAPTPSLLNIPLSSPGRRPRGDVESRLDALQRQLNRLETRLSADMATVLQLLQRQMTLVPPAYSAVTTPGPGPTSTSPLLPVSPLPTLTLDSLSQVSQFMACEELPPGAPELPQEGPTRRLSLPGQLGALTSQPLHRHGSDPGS

SMILES	Activity (Sindbis virus)	Activity (Zika virus)	EC50 (Chikungunya virus [1]) [µM]	Activity (Semliki Forest virus)	solubility [2] [µM]	Activity (Enterovirus)	inhibition at 10 min, up to 30 µM (hERG (KCNH2)) [%]	Activity (Caco-2 [3])	Activity (Chikungunya virus [4])	Ratio EC50 (Chikungunya virus [5])	remaining at 1 h [6] [%]	CC50 at 120 h [7] [µM]	Activity (Caco-2 [8])	half-life [9] [h]	selectivity ratio [10]	Activity (Caco-2 [11])
O=S(=O)(c1ccc(F)cc1)N1CCN(c2ncccn2)CC1	inactive	inactive	310	inactive	64 (≈ 20.6 µg/mL)	inactive	9.63									
CCNc1nc(C)cc(N2CCN(C(=O)c3ccc([N+](=O)[O-])cc3)CC2)n1			0.91		> 120			Non-Toxic	Dose-Dependent Effect	14	100	> 100	Non-Toxic	> 1	> 110	Non-Toxic
